The text below walks through data of ChEMBL document CHEMBL5291721, “A preclinical secondary pharmacology resource illuminates target-adverse drug reaction associations of marketed drugs” (Nat Commun, 2023).

Some results are limits rather than exact numbers.

Assay [1] concerns the target Beta-1 adrenergic receptor (Homo sapiens, UniProt P08588). The assay is classed as functional.
Assay [2] concerns the target Voltage-dependent L-type calcium channel subunit alpha-1C (Rattus norvegicus, UniProt P22002). The assay is classed as functional.
In a further assay the target is T1, Estrogen receptor (Homo sapiens, UniProt P03372).
T1 sequence (P03372 whole entry): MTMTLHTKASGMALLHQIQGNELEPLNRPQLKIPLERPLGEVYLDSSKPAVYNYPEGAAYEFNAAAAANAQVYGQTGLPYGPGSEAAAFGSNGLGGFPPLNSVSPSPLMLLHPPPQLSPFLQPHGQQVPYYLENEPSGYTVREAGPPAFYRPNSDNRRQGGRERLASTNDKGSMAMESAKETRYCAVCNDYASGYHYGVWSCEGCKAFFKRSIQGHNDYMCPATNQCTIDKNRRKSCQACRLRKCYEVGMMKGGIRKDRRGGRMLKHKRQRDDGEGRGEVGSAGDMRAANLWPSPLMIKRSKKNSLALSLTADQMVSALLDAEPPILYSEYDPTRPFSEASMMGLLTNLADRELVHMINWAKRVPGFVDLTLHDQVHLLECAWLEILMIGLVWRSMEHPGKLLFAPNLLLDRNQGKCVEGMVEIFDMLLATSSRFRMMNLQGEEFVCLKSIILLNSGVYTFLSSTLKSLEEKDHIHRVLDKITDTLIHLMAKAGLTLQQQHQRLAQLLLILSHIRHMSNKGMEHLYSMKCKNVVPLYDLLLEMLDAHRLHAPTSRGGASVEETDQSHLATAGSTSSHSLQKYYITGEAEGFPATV

Assay [3] concerns the target Growth hormone secretagogue receptor type 1 (Homo sapiens, UniProt Q92847).
The target of assay [4] is 5-hydroxytryptamine receptor 2A (Homo sapiens, UniProt P28223). The assay is classed as functional, cell-based.
Sequence of 5-hydroxytryptamine receptor 2A (P28223 whole entry): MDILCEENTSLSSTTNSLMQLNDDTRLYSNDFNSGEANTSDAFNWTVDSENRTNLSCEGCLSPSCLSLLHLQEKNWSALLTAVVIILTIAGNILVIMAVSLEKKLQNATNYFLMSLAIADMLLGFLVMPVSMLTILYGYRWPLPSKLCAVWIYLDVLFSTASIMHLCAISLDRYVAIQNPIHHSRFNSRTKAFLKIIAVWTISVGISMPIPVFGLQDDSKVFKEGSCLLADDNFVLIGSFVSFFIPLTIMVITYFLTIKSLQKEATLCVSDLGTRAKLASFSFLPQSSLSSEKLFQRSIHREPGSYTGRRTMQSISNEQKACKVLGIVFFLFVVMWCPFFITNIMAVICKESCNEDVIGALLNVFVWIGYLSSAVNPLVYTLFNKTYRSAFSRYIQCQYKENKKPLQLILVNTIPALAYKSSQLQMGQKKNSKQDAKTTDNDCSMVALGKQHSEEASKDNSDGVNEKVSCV
In the next assay the target is Motilin receptor (Homo sapiens, UniProt O43193).
Sequence of Motilin receptor (O43193 whole entry): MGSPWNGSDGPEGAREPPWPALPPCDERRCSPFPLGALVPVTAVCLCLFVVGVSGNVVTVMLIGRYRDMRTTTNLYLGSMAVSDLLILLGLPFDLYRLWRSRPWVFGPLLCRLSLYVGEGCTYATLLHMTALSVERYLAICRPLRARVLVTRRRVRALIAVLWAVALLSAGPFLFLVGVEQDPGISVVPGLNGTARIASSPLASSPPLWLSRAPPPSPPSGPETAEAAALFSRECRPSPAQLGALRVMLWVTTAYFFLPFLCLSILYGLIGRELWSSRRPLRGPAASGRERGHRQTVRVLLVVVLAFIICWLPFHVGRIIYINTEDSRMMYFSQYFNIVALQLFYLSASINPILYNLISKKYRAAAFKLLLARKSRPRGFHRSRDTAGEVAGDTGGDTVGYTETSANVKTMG
A further assay has as its target T2, Glucocorticoid receptor (Homo sapiens, UniProt P04150).
T2 sequence (P04150 whole entry): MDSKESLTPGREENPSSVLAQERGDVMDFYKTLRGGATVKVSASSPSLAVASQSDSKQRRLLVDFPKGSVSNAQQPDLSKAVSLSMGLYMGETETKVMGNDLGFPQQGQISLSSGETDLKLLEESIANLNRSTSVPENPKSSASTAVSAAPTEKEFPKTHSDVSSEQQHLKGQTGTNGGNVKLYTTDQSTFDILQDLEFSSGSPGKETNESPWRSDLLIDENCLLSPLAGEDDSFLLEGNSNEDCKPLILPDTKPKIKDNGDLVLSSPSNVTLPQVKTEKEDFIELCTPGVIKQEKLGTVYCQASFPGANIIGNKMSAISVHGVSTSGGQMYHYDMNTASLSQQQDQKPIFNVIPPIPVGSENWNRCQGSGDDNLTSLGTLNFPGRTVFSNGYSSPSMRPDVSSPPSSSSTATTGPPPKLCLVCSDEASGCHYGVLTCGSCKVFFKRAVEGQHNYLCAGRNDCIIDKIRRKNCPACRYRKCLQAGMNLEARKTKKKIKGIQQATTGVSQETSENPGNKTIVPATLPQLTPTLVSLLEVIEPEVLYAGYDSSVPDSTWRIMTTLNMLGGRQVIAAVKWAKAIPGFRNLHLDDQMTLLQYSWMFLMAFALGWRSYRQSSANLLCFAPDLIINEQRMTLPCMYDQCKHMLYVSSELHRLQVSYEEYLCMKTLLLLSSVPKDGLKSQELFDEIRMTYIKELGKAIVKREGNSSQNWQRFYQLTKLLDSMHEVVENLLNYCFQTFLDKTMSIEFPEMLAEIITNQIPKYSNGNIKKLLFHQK

Assay [5] has as its target T3, Equilibrative nucleoside transporter 1 (Homo sapiens, UniProt Q99808).
T3 sequence (Q99808 whole entry): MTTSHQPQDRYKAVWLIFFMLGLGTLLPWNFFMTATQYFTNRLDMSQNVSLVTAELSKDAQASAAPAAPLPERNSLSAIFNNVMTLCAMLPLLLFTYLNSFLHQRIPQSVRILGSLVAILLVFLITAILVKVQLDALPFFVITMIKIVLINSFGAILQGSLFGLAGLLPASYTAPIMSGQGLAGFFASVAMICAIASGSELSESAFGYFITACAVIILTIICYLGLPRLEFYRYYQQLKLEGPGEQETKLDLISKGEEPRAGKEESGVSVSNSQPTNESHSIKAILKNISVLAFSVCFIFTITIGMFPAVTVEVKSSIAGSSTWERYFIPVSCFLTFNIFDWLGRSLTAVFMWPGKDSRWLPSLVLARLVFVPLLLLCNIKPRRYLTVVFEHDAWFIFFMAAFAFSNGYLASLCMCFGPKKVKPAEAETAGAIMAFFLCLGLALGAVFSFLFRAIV

Assay [6] concerns the target Beta-2 adrenergic receptor (Homo sapiens, UniProt P07550). Format: functional, cell-based.
Further: assay procedure not described here.

Sequence of Beta-1 adrenergic receptor (P08588 whole entry): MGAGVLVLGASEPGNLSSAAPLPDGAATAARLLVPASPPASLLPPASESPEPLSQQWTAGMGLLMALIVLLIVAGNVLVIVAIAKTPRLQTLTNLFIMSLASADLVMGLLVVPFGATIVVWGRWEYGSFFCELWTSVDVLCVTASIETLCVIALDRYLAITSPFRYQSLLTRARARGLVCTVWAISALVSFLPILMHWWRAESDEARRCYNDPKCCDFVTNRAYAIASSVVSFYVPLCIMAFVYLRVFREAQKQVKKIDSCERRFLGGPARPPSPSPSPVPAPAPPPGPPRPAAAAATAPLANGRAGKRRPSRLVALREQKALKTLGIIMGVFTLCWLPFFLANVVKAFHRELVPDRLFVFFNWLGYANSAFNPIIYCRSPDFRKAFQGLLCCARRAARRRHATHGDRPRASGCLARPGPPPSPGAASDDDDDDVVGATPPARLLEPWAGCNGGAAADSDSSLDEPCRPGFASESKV
Sequence of Growth hormone secretagogue receptor type 1 (Q92847 whole entry): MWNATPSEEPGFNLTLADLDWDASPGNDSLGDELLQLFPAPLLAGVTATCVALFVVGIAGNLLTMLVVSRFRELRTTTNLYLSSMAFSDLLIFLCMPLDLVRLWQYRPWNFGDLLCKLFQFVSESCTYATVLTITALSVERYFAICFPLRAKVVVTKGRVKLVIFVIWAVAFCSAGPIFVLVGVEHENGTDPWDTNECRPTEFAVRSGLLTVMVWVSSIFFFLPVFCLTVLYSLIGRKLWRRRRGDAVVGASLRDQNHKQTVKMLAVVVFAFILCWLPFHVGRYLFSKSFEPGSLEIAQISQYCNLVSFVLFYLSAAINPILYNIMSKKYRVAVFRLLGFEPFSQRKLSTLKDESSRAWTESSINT
Sequence of Beta-2 adrenergic receptor (P07550 whole entry): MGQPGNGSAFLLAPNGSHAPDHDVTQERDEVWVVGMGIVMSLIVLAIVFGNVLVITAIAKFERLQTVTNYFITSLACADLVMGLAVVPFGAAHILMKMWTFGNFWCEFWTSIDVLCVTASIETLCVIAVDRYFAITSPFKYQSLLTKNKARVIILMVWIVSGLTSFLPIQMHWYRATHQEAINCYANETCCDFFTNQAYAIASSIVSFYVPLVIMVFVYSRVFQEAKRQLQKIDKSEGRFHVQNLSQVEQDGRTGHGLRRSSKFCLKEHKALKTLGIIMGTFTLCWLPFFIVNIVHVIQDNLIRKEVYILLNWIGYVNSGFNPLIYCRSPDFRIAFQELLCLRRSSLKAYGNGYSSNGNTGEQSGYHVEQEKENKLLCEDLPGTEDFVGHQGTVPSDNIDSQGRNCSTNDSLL
Sequence of Voltage-dependent L-type calcium channel subunit alpha-1C (P22002 whole entry): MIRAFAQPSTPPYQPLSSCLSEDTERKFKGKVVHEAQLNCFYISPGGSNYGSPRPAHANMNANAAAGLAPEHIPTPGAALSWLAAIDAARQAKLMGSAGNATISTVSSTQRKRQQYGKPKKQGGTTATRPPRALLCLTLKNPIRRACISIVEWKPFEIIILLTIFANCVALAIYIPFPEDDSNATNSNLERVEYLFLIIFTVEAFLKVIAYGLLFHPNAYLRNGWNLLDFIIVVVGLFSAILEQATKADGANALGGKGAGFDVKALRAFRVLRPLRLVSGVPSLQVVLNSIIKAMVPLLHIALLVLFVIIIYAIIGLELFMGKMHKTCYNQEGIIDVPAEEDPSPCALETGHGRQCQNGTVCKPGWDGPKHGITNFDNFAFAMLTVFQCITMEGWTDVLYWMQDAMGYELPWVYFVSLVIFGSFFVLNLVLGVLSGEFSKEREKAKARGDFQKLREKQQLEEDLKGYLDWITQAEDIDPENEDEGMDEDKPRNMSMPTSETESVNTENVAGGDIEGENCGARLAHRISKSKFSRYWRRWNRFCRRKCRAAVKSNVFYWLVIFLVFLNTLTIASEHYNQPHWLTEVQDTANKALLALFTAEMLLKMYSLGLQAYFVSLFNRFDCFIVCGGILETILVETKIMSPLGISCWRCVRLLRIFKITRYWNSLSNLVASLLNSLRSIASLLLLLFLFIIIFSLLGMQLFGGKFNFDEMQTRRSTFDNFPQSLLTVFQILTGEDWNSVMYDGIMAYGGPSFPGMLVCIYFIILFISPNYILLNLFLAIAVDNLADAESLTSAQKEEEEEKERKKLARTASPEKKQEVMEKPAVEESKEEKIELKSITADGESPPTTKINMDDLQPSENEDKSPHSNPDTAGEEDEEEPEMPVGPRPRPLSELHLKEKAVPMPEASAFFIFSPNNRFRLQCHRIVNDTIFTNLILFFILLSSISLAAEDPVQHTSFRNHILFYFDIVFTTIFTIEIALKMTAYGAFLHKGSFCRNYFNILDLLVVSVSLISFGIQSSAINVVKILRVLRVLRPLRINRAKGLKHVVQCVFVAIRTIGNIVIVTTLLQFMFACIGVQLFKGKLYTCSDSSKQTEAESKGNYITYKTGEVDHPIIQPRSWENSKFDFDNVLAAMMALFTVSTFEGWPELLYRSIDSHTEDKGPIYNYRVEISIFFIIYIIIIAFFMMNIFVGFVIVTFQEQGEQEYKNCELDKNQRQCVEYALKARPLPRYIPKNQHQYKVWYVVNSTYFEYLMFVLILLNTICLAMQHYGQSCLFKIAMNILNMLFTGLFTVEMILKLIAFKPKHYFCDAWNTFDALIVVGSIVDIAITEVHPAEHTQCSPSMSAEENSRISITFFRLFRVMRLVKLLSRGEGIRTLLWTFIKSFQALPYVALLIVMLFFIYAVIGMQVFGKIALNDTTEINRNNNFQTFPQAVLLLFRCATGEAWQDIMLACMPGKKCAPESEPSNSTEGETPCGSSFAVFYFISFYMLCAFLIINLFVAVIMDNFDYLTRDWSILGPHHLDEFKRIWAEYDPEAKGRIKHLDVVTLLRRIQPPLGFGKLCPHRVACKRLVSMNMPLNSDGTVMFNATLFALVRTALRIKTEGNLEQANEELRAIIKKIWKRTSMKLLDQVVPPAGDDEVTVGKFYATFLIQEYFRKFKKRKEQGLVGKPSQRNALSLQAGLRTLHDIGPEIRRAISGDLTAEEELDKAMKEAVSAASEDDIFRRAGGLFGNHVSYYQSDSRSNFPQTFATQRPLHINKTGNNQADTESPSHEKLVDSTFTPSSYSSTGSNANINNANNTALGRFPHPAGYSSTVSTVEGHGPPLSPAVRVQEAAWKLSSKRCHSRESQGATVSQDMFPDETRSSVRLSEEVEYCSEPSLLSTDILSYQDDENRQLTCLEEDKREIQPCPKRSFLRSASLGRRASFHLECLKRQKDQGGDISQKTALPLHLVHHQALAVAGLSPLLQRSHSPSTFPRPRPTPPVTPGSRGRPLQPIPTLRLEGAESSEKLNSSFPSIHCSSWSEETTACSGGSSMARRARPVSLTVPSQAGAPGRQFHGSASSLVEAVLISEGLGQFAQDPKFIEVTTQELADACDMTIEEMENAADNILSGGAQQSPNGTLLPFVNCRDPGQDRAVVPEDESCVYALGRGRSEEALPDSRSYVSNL

As a reminder, the AC50 is the concentration giving half of the maximal activity seen. Consider `NS(=O)(=O)c1cc(-c2nnn[nH]2)c(NCc2cccs2)cc1Cl` [AZOSEMIDE], for which the AC50 (in assay [1]; in assay [2]; at Estrogen receptor; in assay [3]; in assay [4]; at Motilin receptor) was > 30 µM in each case. For the same compound, the AC50 (at Glucocorticoid receptor; in [5]) was > 30 µM throughout.
As for `C[N+](C)(C)CC(=O)O` [BETAINE], the AC50 (in assay [1]; in assay [2]; on Estrogen receptor; in [3]; in assay [4]; on Motilin receptor) was > 30 µM throughout. The AC50 in [5] is > 30 µM.
Consider `CCCC(=O)N1CCCN(c2nc(N)c3cc(OC)c(OC)cc3n2)CC1` [BUNAZOSIN], for which the AC50 (in assay [1]; in assay [6]; at Estrogen receptor; in assay [3]; in [4]; at Motilin receptor) was > 30 µM throughout. In [5], the AC50 is > 30 µM.
As to `C[N+](C)(C)CCOC(N)=O` [CARBAMOYLCHOLINE], the AC50 in assay [1] was > 10 µM; in assay [6], > 30 µM; in [2], > 10 µM; in [3], > 10 µM; at Motilin receptor, > 10 µM; in [5], > 10 µM.
With `N[C@@H](CSCC(=O)O)C(=O)O` [CARBOCYSTEINE], the AC50 (in assay [1]; in assay [2]; on Estrogen receptor; in assay [3]; in assay [4]; on Motilin receptor) was > 30 µM throughout. Further, in assay [5], the AC50 was > 30 µM.
On to `CC(C)(N)Cc1ccc(Cl)cc1` [CHLORPHENTERMINE], for which the AC50 in assay [1] is > 10 µM; in [6], > 30 µM; in assay [2], > 10 µM; on Estrogen receptor, > 30 µM; in assay [3] it was > 30 µM; in assay [4], > 30 µM. Besides, the AC50 on Motilin receptor is > 10 µM; in [5], > 30 µM.
On to `CN(C)[C@@H]1C(O)=C(C(N)=O)C(=O)[C@@]2(O)C(O)=C3C(=O)c4c(O)ccc(Cl)c4[C@@H](O)[C@H]3C[C@@H]12` [DEMECLOCYCLINE], for which the half-maximal activity concentration (AC50) in assay [1] was > 10 µM; in [2], > 10 µM; in [3] it was > 10 µM; in assay [4] it was > 10 µM; at Motilin receptor, > 10 µM; on Glucocorticoid receptor, > 30 µM. Moreover, the AC50 in [5] is > 10 µM.
For `NS(=O)(=O)c1cc(Cl)c(Cl)c(S(N)(=O)=O)c1` [DICHLORPHENAMIDE], the AC50 in [1] is > 10 µM; in assay [6], > 30 µM; in assay [2] it was > 10 µM; in assay [3], > 10 µM; in assay [4], > 10 µM; on Motilin receptor, > 10 µM. Further, the AC50 (at Glucocorticoid receptor; in assay [5]) was > 10 µM in each case.
For `O=C(Nc1ccccc1)OCC(CN1CCCCC1)OC(=O)Nc1ccccc1` (stereo not drawn) [DIPERODON], the AC50 in assay [1] was > 10 µM; in [6] it was > 30 µM; on Estrogen receptor, > 30 µM; in [3], > 30 µM; in assay [4], > 30 µM; on Motilin receptor, > 10 µM. Also, the AC50 (on Glucocorticoid receptor; in [5]) was > 30 µM each time.
On to `C=C1C[C@@H]2[C@H](CC[C@]3(C)C(=O)CC[C@@H]23)[C@@]2(C)C=CC(=O)C=C12` [EXEMESTANE], for which the AC50 was > 10 µM in assay [1]; > 30 µM in assay [6]; > 10 µM in assay [2]; > 30 µM on Estrogen receptor; > 30 µM in assay [3]; > 30 µM in assay [4]. Further, the AC50 at Motilin receptor was > 10 µM; in [5] it was > 30 µM.
Take `CC(=O)N(CC(O)CO)c1c(I)c(C(=O)NCC(O)CO)c(I)c(C(=O)NCC(O)CO)c1I` (stereo not drawn) [IOHEXOL]: the AC50 was > 30 µM in assay [1]; > 10 µM in assay [2]; > 30 µM on Estrogen receptor; > 30 µM in assay [3]; > 30 µM in assay [4]; > 10 µM at Motilin receptor. The AC50 in assay [5] is > 30 µM.
Regarding `CC(=O)O[C@]1(C(C)=O)CC[C@H]2[C@@H]3C[C@H](C)C4=CC(=O)CC[C@]4(C)[C@H]3CC[C@@]21C` [MEDROXYPROGESTERONE ACETATE], the AC50 in [1] was > 30 µM; in [3], > 30 µM; on Motilin receptor, > 30 µM; at Glucocorticoid receptor, 0.015 µM; in assay [5], > 30 µM.
In the case of `CN(C/C=C/c1ccccc1)Cc1cccc2ccccc12` [NAFTIFINE], the AC50 in assay [1] was > 30 µM; in assay [6], > 30 µM; in [2], > 10 µM; on Estrogen receptor, > 30 µM; in assay [3], > 30 µM; on Motilin receptor, > 10 µM. In addition, the AC50 (at Glucocorticoid receptor; in [5]) was > 30 µM throughout.
On to `CC(C)NCC1CCc2cc(CO)c([N+](=O)[O-])cc2N1` (stereo not drawn) [OXAMNIQUINE], for which the AC50 is > 10 µM in assay [1]; > 10 µM in [2]; > 10 µM at Estrogen receptor; > 10 µM in [3]; > 30 µM in assay [4]; > 10 µM at Motilin receptor. The AC50 on Glucocorticoid receptor was > 10 µM; in assay [5], > 30 µM.
With `CN(C)CCCN1c2ccccc2Sc2ccccc21` [PROMAZINE], the AC50 is > 10 µM in assay [1]; > 30 µM in assay [6]; > 10 µM in [2]; > 30 µM in assay [3]; > 10 µM at Motilin receptor; > 30 µM in assay [5].
In the case of `O=C(O)CCn1c2c(c3ccccc31)C[C@H](NS(=O)(=O)c1ccc(F)cc1)CC2` [RAMATROBAN], the AC50 in assay [1] was > 30 µM; in assay [2] it was > 10 µM; on Estrogen receptor, > 30 µM; in assay [3], > 30 µM; in [4], > 10 µM; on Motilin receptor it was > 30 µM. For the same compound, the AC50 (at Glucocorticoid receptor; in [5]) was > 30 µM in each case.
`O=P(O)(O)C(O)(Cc1cccnc1)P(=O)(O)O` [RISEDRONIC ACID]: the AC50 (in [1]; in [2]; on Estrogen receptor; in [3]; at Motilin receptor; on Glucocorticoid receptor) was > 30 µM each time. Also, in assay [5], the AC50 is > 30 µM.
Regarding `O=C1CCC(N2C(=O)c3ccccc3C2=O)C(=O)N1` (stereo not drawn) [THALIDOMIDE], the AC50 is > 10 µM in assay [1]; > 30 µM in assay [6]; > 10 µM in assay [2]; > 30 µM in assay [3]; > 10 µM on Motilin receptor; > 30 µM at Glucocorticoid receptor. Further, the AC50 in assay [5] is > 30 µM.
For `CC(=O)N[C@H]1[C@H]([C@H](O)[C@H](O)CO)OC(C(=O)O)=C[C@@H]1N=C(N)N` [ZANAMIVIR], the AC50 (in assay [1]; in assay [2]; at Estrogen receptor; in assay [3]; in assay [4]; on Motilin receptor) was > 30 µM throughout. Besides, the AC50 (on Glucocorticoid receptor; in assay [5]) was > 30 µM each time.
